Data on 3 compounds can be found in patent US20250179047A1, “5-[7-(3,4-DIHYDRO-1H-ISOQUINOLINE-2-CARBONYL)-1,2,3,4 TETRAHYDROISOQUINOLIN-6-YL]-1H-PYRROLE-3-CARBOXAMIDE DERIVATIVES, PHARMACEUTICAL COMPOSITIONS CONTAINING THEM AND THEIR USES AS PRO-APOPTOTIC AGENTS” (LES LABORATOIRES SERVIER, priority 2022, published 2025).

One test has as its system BCL2 G101V. The test can be described thus: TR-FRET competitive binding assay, BCL2 G101V. More on the design: species or system human. The following applies: ratio Ki BCL2 G101V / Ki BCL2 WT. Put shortly: (§1)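 Competitive TR-FRET displacement of fluorescein-PUMA peptide (2 or 20 nM) from 0.5 nM terbium-labelled N-terminal Halo-fusion BCL2 (1-207, wild type or mutant) or BCLXL (2-196), expressed in E. coli. Buffer 50 mM Hepes pH 7.5, 150 mM NaCl, 5% DMSO; 2 h at 23°C. 520/495 nm ratio fitted over 11 points for IC50, converted to Ki.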

The next test concerns the target BCL2 D111A (Homo sapiens, UniProt P10415, D111A). Briefly: TR-FRET competitive binding assay, BCL2 D111A. Particulars: Ki determined from IC50, read-out: TR_FRET EKI_Bcl2 D111A. Put shortly:
as §1

A further test has as its target BCL2 F104I (Homo sapiens, UniProt P10415, F104I). Briefly: TR-FRET competitive binding assay, BCL2 F104I. The following applies: Ki determined from IC50, read-out: TR_FRET EKI_Bcl2 F104I. In outline:
as §1

A further test deals with KMS12PE Bcl2 D103Y. Briefly: In vitro cytotoxicity CellTiterGlo 72 h, KMS12PE Bcl2 D103Y. The format is cell-based. Particulars: Homo sapiens, KMS-12-PE, read-out: C50 nM, KMS12PE Bcl2 D103Y. On the procedure: (§2) KMS-12-PE (ACC 606) were purchased from the Leibniz-Institute DSMZ (Braunschweig, Germany) and were grown at 37° C. in a humidified atmosphere with 5% CO2 in media recommended by the suppliers. Lentiviral particles containing Bcl-2 wild type (also named “Bcl2 WT”), Bcl-2 mutated on G101V (also named “Bcl2 G101V”), Bcl-2 mutated on D103Y (also named “Bcl2 D103Y”), Bcl-2 mutated on D103V (also named “Bcl2 D103V”), Bcl-2 mutated on D103E (also named “Bcl2 D103E”), Bcl-2 mutated on F104I (also named “Bcl2 F104I”), Bcl-2 mutated on F104L (also named “Bcl2 F104L”), Bcl-2 mutated on D111A (also named “Bcl2 D111A”), Bcl-2 mutated on A113G (also named “Bcl2 A113G”), Bcl-2 mutated on R129L (also named “Bcl2 R129L”), Bcl-2 mutated on V156D (also named “Bcl2 V156D”) were cloned into pcLV-CMV-DEST-IRES-TagRFP. Lentiviral particles (1×10^6) were mixed with Polybrene at 8 μg/ml and transduced by spinoculation for 1 h at 32° C. and incubated overnight. After 8 days, TagRFP positive-cells were sorted by FACS. BCL2 expression was monitored by immunoblotting using anti-Flag and anti-BCL2 antibodies. Cells were seeded into 96-wells plates and treated with 1:3.16 serial dilution of compounds (9 different concentrations). Cell viability was assessed using CellTiterGlo reagent following treatment for 72 h. Results were normalized to the viability of cells without compounds (control wells). The C50 values were calculated using nonlinear regression algorithms in XCell software.

A further test addresses BCL2 D103Y (Homo sapiens, UniProt P10415, D103Y). Briefly: TR-FRET competitive binding assay, BCL2 D103Y. Particulars: Ki determined from IC50, read-out: TR_FRET EKI_Bcl2 D103Y. In outline:
as §1
On the technique in general: TR-FRET usually uses a lanthanide donor and a delayed reading to cut background.

The subject of the next test is KMS12PE Bcl2 D111A. Briefly: In vitro cytotoxicity CellTiterGlo 72 h, KMS12PE Bcl2 D111A. It counts as cell-based. The following applies: Homo sapiens, KMS-12-PE, read-out: C50 nM, KMS12PE Bcl2 D111A. As for the experimental part:
as §2

A further test concerns KMS12PE Bcl2 F104L. Briefly: In vitro cytotoxicity CellTiterGlo 72 h, KMS12PE Bcl2 F104L. The format is cell-based. The following applies: Homo sapiens, KMS-12-PE, read-out: C50 nM, KMS12PE Bcl2 F104L. As for the experimental part:
as §2

Take `Cc1c(N(C(=O)c2cc(-c3cc4c(cc3C(=O)N3Cc5ccccc5C[C@H]3C)CN(C(=O)Cc3ccc(OCCC5CCOCC5)cc3)CC4)n(C)c2C)c2ccc(O)cc2)cc(C#N)n1C` [Example 27, N-(5-cyano-1,2-dimethyl-1H-pyrrol-3-yl)-N-(4-hydroxyphenyl)-1,2-dimethyl-5-{7-[(3R)-3-methyl-1,2,3,4-tetrahydroisoquinoline-2-carbonyl]-2-(2-{4-[2-(oxan-4-yl)ethoxy]phenyl}acetyl)-1,2,3,4-tetrahydroisoquinolin-6-yl}-1H-pyrrole-3-carboxamide]: in the test on BCL2 G101V, the “TR_FRET EKI G101V/WT selectivty ratio” value came out at 1.5. Besides, the Ki at BCL2 D111A was determined as 1.67 nM; at BCL2 F104I, 2.36 nM; on BCL2 D103Y it was 0.73 nM. The IC50 is 1.1 nM in the test with KMS12PE Bcl2 D103Y, 0.86 nM with KMS12PE Bcl2 D111A and 5.51 nM in the test on KMS12PE Bcl2 F104L.

As to `Cc1c(N(C(=O)c2cc(-c3cc4c(cc3C(=O)N3Cc5ccccc5C[C@H]3CN3CCCCC3)CN(C(=O)Cc3ccc(OCCC5CCOCC5)cc3)CC4)n(C)c2C)c2ccc(O)cc2)cc(C#N)n1C` [Example 66, N-(5-cyano-1,2-dimethylpyrrol-3-yl)-N-(4-hydroxyphenyl)-1,2-dimethyl-5-[2-(2-{4-[2-(oxan-4-yl)ethoxy]phenyl}acetyl)-7-{[(3S)-3-(piperidin-1-ylmethyl)-3,4-dihydro-1H-isoquinolin-2-yl]carbonyl}-3,4-dihydro-1H-isoquinolin-6-yl]pyrrole-3-carboxamide], the “TR_FRET EKI G101V/WT selectivty ratio” value with BCL2 G101V was 5.7. The Ki worked out at 0.23 nM at BCL2 D111A, 0.47 nM at BCL2 F104I and 0.23 nM on BCL2 D103Y. The IC50 with KMS12PE Bcl2 D103Y amounted to 1.3 nM; with KMS12PE Bcl2 D111A it was 1.57 nM; with KMS12PE Bcl2 F104L it was 24.1 nM.

`Cc1c(N(C(=O)c2cc(-c3cc4c(cc3C(=O)N3Cc5ccccc5C[C@H]3C)CN(C(=O)Cc3ccc(OCCN5CCSCC5)cc3)CC4)n(C)c2C)c2ccc(O)cc2)cc(C#N)n1C` [Example 55, N-(5-cyano-1,2-dimethyl-1H-pyrrol-3-yl)-N-(4-hydroxyphenyl)-1,2-dimethyl-5-{7-[(3R)-3-methyl-1,2,3,4-tetrahydroisoquinoline-2-carbonyl]-2-(2-{4-[2-(thiomorpholin-4-yl)ethoxy]phenyl}acetyl)-1,2,3,4-tetrahydroisoquinolin-6-yl}-1H-pyrrole-3-carboxamide]: in the test on BCL2 G101V, the “TR_FRET EKI G101V/WT selectivty ratio” value is reported as 2.4. Also, the Ki on BCL2 D111A was found to be 0.25 nM; on BCL2 F104I it was 0.3 nM; at BCL2 D103Y, 0.16 nM. The results for the IC50 in the test with KMS12PE Bcl2 D103Y, with KMS12PE Bcl2 D111A and in the test with KMS12PE Bcl2 F104L were 2.5 nM, 2.2 nM and 19.7 nM, respectively.
